Read-outs that look alike come from different tables or passages of the source. Values belong to the molecule of their own block, whether it stands above or below them.
Assays:
[1] = tested on: transfected HT1080 cells (hGH target gene) transplanted into nu/nu mice; assay: Rapamycin-dependent production of hGH in mice; format: in vivo
Text: In Vivo Methods: Animals, husbandry, and general procedures. Male nu/nu mice were obtained from Charles River Laboratories (Wilmington, Mass.) and allowed to acclimate for five days prior to experimentation. They were housed under sterile conditions, were allowed free access to sterile food and sterile water throughout the entire experiment, and were handled with sterile techniques throughout.
To transplant transiently transfected cells into mice, 2×10^6 transfected HT1080 cells, were suspended in […] PBS/0.1% BSA/0.1% glucose buffer, and administered into four intramuscular sites (approximately […] per site) on the haunches and flanks of the animals. Control mice received equivalent volume injections of buffer alone.
The accuracy of the dosing solutions was confirmed by HPLC analysis prior to intravenous administration into the tail veins. […] In addition, other control mice, bearing transfected cells, received only the rapamycin vehicle.
Blood was collected by either anesthetizing or sacrificing mice via CO2 inhalation. Anesthetized mice were used to collect […] of blood by cardiac puncture. The mice were revived and allowed to recover for subsequent blood collections. Sacrificed mice were immediately exsanguinated. Blood samples were allowed to clot for 24 hours, at 4° C., and sera were collected following centrifugation at 1000×g for 15 minutes. Serum hGH was measured by the Boehringer Mannheim non-isotopic sandwich ELISA (Cat No. 1 585 878). […] Recommended assay instructions were followed.
Mice were administered transfected HT1080 cells as described above. […] The four remaining doses were given under anesthesia, immediately subsequent to blood collection, at 16, 32, 48, and 64 hours. […] Experimental animals and their control counterparts were each assigned to one of two groups. Each of the two experimental groups and two control groups received identical drug or vehicle treatments, respectively. The groups differed in that blood collection times were alternated between the two groups to reduce the frequency of blood collection for each animal.

[2] = Rapamycin pharmacokinetics in mice; format: in vivo
[3] = tested on: HT1080 cells expressing M30 / M31 (FRAP-FKBP-Fas) constructs; assay: Rapamycin-regulated apoptosis of stably transfected HT1080 cells; format: cell-based, human; details: with 50 ng/ml actinomycin D, about 20 hours, alamar blue
Text: (f) Rapamycin-regulated apoptosis of stable transsfected human HT1080 cells in culture XbaI-BamHI fragments from constructs A30 and A31 (d, table 1) were cloned into pCM to generate M30 and M31, constructs that direct the expression of MT5FasSE and MT6FasSE, where M denotes a myristoylation domain (see this example sections A.1. and A.8.) and other abbreviations are as described in d, table 1. EcoRI-BamHI fragments containing these expression cassettes were then cloned into the retroviral vector pSMN3 (Example 7). […] HT1080 cells were infected with viral stock and selected with G418.
The media was removed and replaced with 100 μl of media containing 10% alamar blue dye. Plates were incubated as before, and the extent of cell viability assessed periodically by spectrophotometric determination of OD at 570 nm and 600 nm on a microtiter plate reader. Typically reading was continued until control (untreated) wells are at OD 0.2-0.4 after subtraction of blank.

FKBPwt = biological target: T1, FKBPwt (Homo sapiens, UniProt P62942); assay: Competitive fluorescence polarization (FP) binding assay of rapalogs to FKBP
T1 construct: made in house

[4] = =IC50/IC50 of rapamycin, C7 rapalogs
[5] = C7 rapalogs, read-out: FKBPwt FP binding assay IC50

T1 sequence (P62942 whole entry): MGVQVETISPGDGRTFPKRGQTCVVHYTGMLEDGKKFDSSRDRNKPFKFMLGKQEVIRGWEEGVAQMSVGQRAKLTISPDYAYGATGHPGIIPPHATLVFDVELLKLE

Molecule: CO[C@H]1C[C@@H]2CC[C@@H](C)[C@@](O)(O2)C(=O)C(=O)N2CCCC[C@H]2C(=O)O[C@H]([C@H](C)C[C@@H]2CC[C@@H](O)[C@H](OC)C2)CC(=O)[C@H](C)/C=C(\C)[C@@H](O)[C@@H](OC)C(=O)[C@H](C)C[C@H](C)/C=C/C=C/C=C/1C [rapamycin, Rapamycin]
- production of hGH in mice ([1]; 0.01-10.0 mg/kg intravenous, serum 17 hours after dosing): dose-responsive production of hGH
- time after treatment at which serum hGH remained detectable ([1]; single 10.0 mg/kg dose): 42 h
- time at which serum hGH was observed ([1]; single 10.0 mg/kg dose): within four hours
- time of peak serum hGH ([1]; single 10.0 mg/kg dose): eight hours
- peak serum hGH level ([1]; single 10.0 mg/kg dose, eight hours): over one hundred times the sensitivity limit of the hGH ELISA
- predicted steady-state trough concentration of rapamycin ([2]; 10.0 mg/kg at 16-hour intervals, after two doses): 1.7 µg/mL
- half-life ([2]; nu/nu, mouse, in vivo, mice, intravenous): 4.6 h
- survival of stably transfected cells [3]: potently reduced

Molecule: COc1ccc(C2CC3CCC(C)C(O)(O3)C(=O)C(=O)N3CCCCC3C(=O)OC(C(C)CC3CCC(O)C(OC)C3)CC(=O)C(C)C=C(C)C(O)C(OC)C(=O)C(C)CC(C)C=CC=CC=C2C)c(OC)c1 (single isomer, unassigned) [Compound 43]
- fold loss in affinity (cf rapamycin) (FKBPwt; [4]): 8.7
- IC50 (FKBPwt; [5]): 20 nM

Molecule: apamycin (E and Z)-24-(O-benzyloxime) [Compound 11]
- fold loss in affinity (vs rapamycin) (FKBPwt): 3627
- IC50 (FKBPwt; read-out: FKBPwt FP binding assay IC50): 8340 nM

Continued, values first:

- fold loss in affinity (cf rapamycin) (FKBPwt; [4]): 12
- IC50 (FKBPwt; FKBPwt FP binding assay IC50 (nM), C7 rapalogs): 28 nM
Molecule: CO[C@@H]1C[C@H](C[C@@H](C)[C@@H]2CC(=O)[C@H](C)/C=C(\C)[C@@H](O)[C@@H](OC)C(=O)[C@H](C)C[C@H](C)/C=C/C=C/C=C(\C)[C@@H](c3ccco3)C[C@@H]3CC[C@@H](C)[C@@](O)(O3)C(=O)C(=O)N3CCCC[C@H]3C(=O)O2)CC[C@H]1O [Compound 34]

- fold loss in affinity (cf rapamycin) (FKBPwt; [4]): 1.6
- IC50 (FKBPwt; [5]): 3.7 nM
Molecule: CCOC1C[C@@H]2CC[C@@H](C)[C@@](O)(O2)C(=O)C(=O)N2CCCC[C@H]2C(=O)OC([C@H](C)C[C@@H]2CC[C@@H](O)[C@H](OC)C2)CC(=O)[C@H](C)/C=C(\C)[C@@H](O)[C@@H](OC)C(=O)[C@H](C)C[C@H](C)/C=C/C=C/C=C/1C (stereo partly drawn) [Compound 28]

- fold loss in affinity (vs rapamycin) (FKBPwt; =IC50/IC50 of rapamycin, C24 analogs, Table 4): 25.7
- IC50 (FKBPwt; rapamycin C24 analogs, Table 4, read-out: FKBPwt FP binding assay IC50): 59.1 nM
Molecule: COC1CC2CCC(C)C(O)(O2)C(=O)C(=O)N2CCCCC2C(=O)OC(C(C)CC2CCC(O)C(OC)C2)C/C(=N\O)C(C)C=C(C)C(O)C(OC)C(=O)C(C)CC(C)C=CC=CC=C1C (stereo not drawn) [Compound 18]

Reference: patent publication US6649595B2, “Regulation of biological events using novel compounds” (ARIAD Gene Therapeutics, Inc., priority 1995, dated 2003)
